Experimental data: PMC6308944, “Anti-Candida albicans Activity of Thiazolylhydrazone Derivatives in Invertebrate and Murine Models” (Journal of Fungi, 2018)

Assays:
C. glabrata (ATCC90030) = test: MIC, broth microdilution (CLSI M27-A3), reference isolate; settings: Nakaseomyces glabratus
C. dublinensis (MYA-646) = test: as above; settings: Candida dubliniensis
C. albicans (DAY-185) = test: as above; settings: Candida albicans, 48 h
[1] = test system: Cryptococcus neoformans clinical isolates; test: MIC, broth microdilution, clinical isolates
[2] = test system: Candida albicans clinical isolates; test: MIC, broth microdilution, clinical isolates
[3] = test system: Candida glabrata clinical isolates; test: MIC, broth microdilution, clinical isolates; settings: for MIC50 / MIC90 / MIC: Nakaseomyces glabratus; for susceptibility of isolates according to CLSI M27-S4: all C. glabrata clinical isolates
[4] = test system: Candida parapsilosis isolates; test: MIC, broth microdilution, clinical isolates
[5] = test system: C. parapsilosis (ATCC22019); test: MIC, broth microdilution (CLSI M27-A3), reference isolate; settings: Lodderomyces parapsilosis
[6] = test system: C. tropicalis (ATCC13803); test: as above; settings: Candida tropicalis
C. krusei (ATCC6258) = test: as above; settings: Pichia kudriavzevii
C. albicans (CAN14) = test: as above; settings: Candida albicans
C. neoformans (H99) = test: as above; settings: Cryptococcus neoformans
C. albicans CAN14 [7] = test: Murine model of systemic candidiasis; format: in vivo, C57BL/6 mice; settings: 10 mg/kg intraperitoneally every 12 h for 5 days
Protocol: Female mice were used in the oral and systemic candidiasis model.
The murine model of systemic candidiasis was established according to the protocol previously described by [16], with modifications. […] Treatments to mice, performed intraperitoneally, were started 3 h after infection and persisted every 12 h for 5 days. […] All mice were sacrificed by cervical dislocation after 5 days and the kidneys were removed, observed macroscopically for lesions and colonies, weighed, measured and homogenized in PBS. The homogenates were serially diluted and plated on Sabouraud medium plates. Plates were incubated at 30 °C for 48 h and the fungal load was expressed as the ratio of CFU/g of kidney.
A p value ≤ 0.05 was considered significant. Statistical analysis of results of murine tests used Newman–Keuls Multiple and the Student’s t-test using GraphPad Prism, a p-value ≤ 0.05 was considered significant.

C. albicans CAN14 [8] = test: Murine model of oral candidiasis; format: in vivo, C57BL/6 mice; settings: 600 IU, into the mouth every 12 h for 4 days, immunosuppressed mice
[9] = C. neoformans clinical isolate 27JF
[10] = C. neoformans clinical isolate 28JF
[11] = C. neoformans clinical isolate 93
[12] = C. neoformans clinical isolate 94
[13] = C. neoformans clinical isolate 646B
[14] = C. neoformans clinical isolate 975
[15] = C. neoformans clinical isolate 9220
[16] = C. neoformans clinical isolate 9273
[17] = C. neoformans clinical isolate 10131
[18] = C. neoformans clinical isolate 10211
[19] = C. neoformans clinical isolate 10264
[20] = C. neoformans clinical isolate 10335
[21] = C. neoformans clinical isolate 10379
[22] = C. neoformans clinical isolate 41292
[23] = C. neoformans clinical isolate 41295
[24] = C. neoformans clinical isolate 41296
[25] = C. neoformans clinical isolate 41297
[26] = C. neoformans clinical isolate 41298
[27] = C. neoformans clinical isolate 41299
[28] = C. neoformans clinical isolate 90896
[29] = C. neoformans clinical isolate 92868
[30] = C. neoformans clinical isolate BF113
[31] = C. neoformans clinical isolate BF114
[32] = C. neoformans clinical isolate C31
[33] = C. neoformans clinical isolate F10
[34] = C. neoformans clinical isolate RN01
[35] = C. neoformans clinical isolate WP
[36] = Candida albicans, C. albicans clinical isolate 1
[37] = Candida albicans, C. albicans clinical isolate 02A
[38] = Candida albicans, C. albicans clinical isolate 02B
[39] = Candida albicans, C. albicans clinical isolate 6
[40] = Candida albicans, C. albicans clinical isolate 7
[41] = Candida albicans, C. albicans clinical isolate 9
[42] = Candida albicans, C. albicans clinical isolate 10
[43] = Candida albicans, C. albicans clinical isolate 11
[44] = Candida albicans, C. albicans clinical isolate 13
[45] = nine C. albicans clinical isolates
[46] = C. glabrata clinical isolate 6922
[47] = C. glabrata clinical isolate 6927
[48] = C. glabrata clinical isolate 6931
[49] = C. glabrata clinical isolate 6932
[50] = C. glabrata clinical isolate 6943
[51] = C. glabrata clinical isolate 7110
[52] = C. glabrata clinical isolate 7221
[53] = C. glabrata clinical isolate 7255
[54] = C. glabrata clinical isolate 7815
[55] = C. glabrata clinical isolate 7871
[56] = Lodderomyces parapsilosis, C. parapsilosis isolate 6901
[57] = Lodderomyces parapsilosis, C. parapsilosis isolate 6917
[58] = Lodderomyces parapsilosis, C. parapsilosis isolate 6933
[59] = Lodderomyces parapsilosis, C. parapsilosis isolate 7449
[60] = Lodderomyces parapsilosis, C. parapsilosis isolate 7585
[61] = Lodderomyces parapsilosis, C. parapsilosis isolate 7652
[62] = Lodderomyces parapsilosis, C. parapsilosis isolate 7839
[63] = Lodderomyces parapsilosis, C. parapsilosis isolate 7970A
[64] = Lodderomyces parapsilosis, C. parapsilosis isolate 8044
[65] = Lodderomyces parapsilosis, C. parapsilosis isolate 8662

C[C@@H]1[C@H](O)[C@@H](C)/C=C/C=C/C=C/C=C/C=C/C=C/C=C/[C@H](O[C@@H]2O[C@H](C)[C@@H](O)[C@H](N)[C@@H]2O)C[C@@H]2O[C@](O)(C[C@@H](O)C[C@@H](O)[C@H](O)CC[C@@H](O)C[C@@H](O)CC(=O)O[C@H]1C)C[C@H](O)[C@H]2C(=O)O [Amphotericin B]
0.25 µg/mL: MIC90 [1] | MIC [1, 9] | MIC [1, 11] | MIC [1, 12] | MIC [1, 29] | MIC [1, 33] | MIC50 ([2]; Candida albicans) | MIC90 ([2]; Candida albicans) | MIC [2, 36] | MIC [2, 37] | MIC [2, 38] | MIC [2, 41] | MIC [2, 42] | MIC90 [2, 45] | MIC50 ([4]; Lodderomyces parapsilosis) | MIC [4, 57] | MIC [4, 60] | MIC [4, 61] | MIC [4, 63] | MIC [4, 65]
4 µg/mL: MIC [6] | MIC (C. neoformans (H99))
0.5 µg/mL: MIC [2, 39] | MIC50 [3] | MIC [3, 46] | MIC [3, 48] | MIC [3, 49] | MIC [3, 51] | MIC [3, 52] | MIC [3, 54] | MIC90 ([4]; C. parapsilosis isolates) | MIC90 ([4]; Lodderomyces parapsilosis) | MIC [4, 56] | MIC [4, 58] | MIC [4, 59] | MIC [4, 62] | MIC [4, 64]
sensitive: susceptibility of isolates according to CLSI M27-S4 [3]
0.125 µg/mL: MIC50 [1] | MIC [1, 10] | MIC [1, 13] | MIC [1, 14] | MIC [1, 15] | MIC [1, 16] | MIC [1, 17] | MIC [1, 18] | MIC [1, 19] | MIC [1, 20] | MIC [1, 21] | MIC [1, 22] | MIC [1, 23] | MIC [1, 25] | MIC [1, 26] | MIC [1, 27] | MIC [1, 28] | MIC [1, 32] | MIC [1, 34] | MIC [2, 40] | MIC [2, 43] | MIC [2, 44]
2 µg/mL: MIC (C. glabrata (ATCC90030)) | MIC [5]
< 0.0625 µg/mL: MIC [1, 31]
8 µg/mL: MIC (C. krusei (ATCC6258))
1 µg/mL: MIC (C. dublinensis (MYA-646)) | MIC (C. albicans (DAY-185)) | MIC [1, 24] | MIC [1, 30] | MIC [1, 35] | MIC90 [3] | MIC [3, 47] | MIC [3, 50] | MIC [3, 53] | MIC [3, 55] | MIC (C. albicans (CAN14))

OC(Cn1cncn1)(Cn1cncn1)c1ccc(F)cc1F [Fluconazole]
1 µg/mL: MIC (C. dublinensis (MYA-646)) | MIC [1, 13] | MIC50 ([2]; Candida albicans) | MIC [2, 36] | MIC [2, 39] | MIC [2, 40] | MIC [2, 43] | MIC [2, 44] | MIC [3, 51] | MIC [4, 63]
significant reduction: fungal load in the kidneys (CFU/g) versus untreated control (C. albicans CAN14 [7])
32 µg/mL: MIC [1, 23] | MIC [1, 28]
> 64 µg/mL: MIC [6]
64 µg/mL: MIC [1, 31] | MIC (C. krusei (ATCC6258))
16 µg/mL: MIC90 [1] | MIC [1, 24] | MIC [1, 30] | MIC90 ([4]; C. parapsilosis isolates) | MIC90 ([4]; Lodderomyces parapsilosis) | MIC [4, 59] | MIC [4, 65]
4 µg/mL: MIC (C. glabrata (ATCC90030)) | MIC [1, 11] | MIC [1, 18] | MIC [1, 19] | MIC [1, 27] | MIC [1, 32] | MIC [1, 33] | MIC [1, 34] | MIC [2, 37] | MIC [4, 61]
0.125 µg/mL: MIC (C. albicans (CAN14))
sensitive: susceptibility of isolates according to CLSI M27-S4 [3]
8 µg/mL: MIC50 [1] | MIC [1, 9] | MIC [1, 10] | MIC [1, 12] | MIC [1, 17] | MIC [1, 20] | MIC [1, 21] | MIC [1, 22] | MIC [1, 25] | MIC [1, 26] | MIC [1, 29] | MIC [1, 35] | MIC [3, 50] | MIC [5]
2.0 µg/mL: MIC90 [2, 45]
0.5 µg/mL: MIC (C. albicans (DAY-185)) | MIC [2, 41] | MIC [2, 42] | MIC [3, 48] | MIC [3, 49] | MIC [3, 52] | MIC [4, 62]
0.25 µg/mL: MIC50 ([4]; Lodderomyces parapsilosis) | MIC [4, 56] | MIC [4, 57] | MIC [4, 58] | MIC [4, 60] | MIC [4, 64]
2 µg/mL: MIC [1, 14] | MIC [1, 15] | MIC [1, 16] | MIC90 ([2]; Candida albicans) | MIC [2, 38] | MIC50 [3] | MIC90 [3] | MIC [3, 46] | MIC [3, 47] | MIC [3, 53] | MIC [3, 54] | MIC [3, 55] | MIC (C. neoformans (H99))

C[C@@H]1[C@H](O)[C@@H](C)/C=C/C=C/CC/C=C/C=C/C=C/C=C/C(O[C@H]2O[C@H](C)[C@@H](O)[C@H](N)[C@@H]2O)CC2O[C@](O)(CC(O)C(O)CCC(O)CC(O)CC(O)CC(=O)O[C@H]1C)CC(O)C2C(=O)O (some centres unmarked) [nystatin]
lower: fungal load on the tongue (CFU) versus untreated control (C. albicans CAN14 [8])
